Test results: patent publication US11053204B2, “Pyrimidinyloxy benzene derivatives as herbicides” (FMC Corporation, priority 2015, dated 2021)

Columns and labels:
Assay type in all cases: in vivo
[1] = system: barnyardgrass (Echinochloa crus-galli); experiment: Test A preemergence, visual injury rating; details: for Plant response rating, Barnyardgrass: 31 g ai/ha, 0 to 100 scale, 0 no effect, 100 complete control; for Barnyardgrass plant response rating: 0 to 100 scale (0 no effect, 100 complete control)
Method in brief: (§1)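 Pre- and postemergence greenhouse screen. Soil: loam + sand. Spray carrier: solvent mixture, non-phytotoxic, with surfactant. Post timing at 1–2 leaves, height 2–10 cm. Readout: visual injury on a 0–100 scale roughly 10 days after application, untreated plants as reference.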

[2] = system: ragweed (common ragweed, Ambrosia elatior); experiment: Test A preemergence, visual injury rating; details: for Plant response rating, Ragweed: 31 g ai/ha, 0 to 100 scale, 0 no effect, 100 complete control; for Ragweed plant response rating: 0 to 100 scale (0 no effect, 100 complete control)
Method in brief: as §1

[3] = system: giant foxtail (Setaria faberii); experiment: Test A preemergence, visual injury rating; details: for Plant response rating, Foxtail, Giant: 31 g ai/ha, 0 to 100 scale, 0 no effect, 100 complete control; for Foxtail, Giant plant response rating: 0 to 100 scale (0 no effect, 100 complete control)
Method in brief: as §1

[4] = system: pigweed (Amaranthus retroflexus); experiment: Test A preemergence, visual injury rating; details: for Plant response rating, Pigweed: 31 g ai/ha, 0 to 100 scale, 0 no effect, 100 complete control; for Pigweed plant response rating: 0 to 100 scale (0 no effect, 100 complete control)
Method in brief: as §1

[5] = system: Italian ryegrass (Lolium multiflorum); experiment: Test A preemergence, visual injury rating; details: for Plant response rating, Ryegrass, Italian: 31 g ai/ha, 0 to 100 scale, 0 no effect, 100 complete control; for Ryegrass, Italian plant response rating: 0 to 100 scale (0 no effect, 100 complete control)
Method in brief: as §1

[6] = system: kochia (Kochia scoparia); experiment: Test A preemergence, visual injury rating; details: for Plant response rating, Kochia: 31 g ai/ha, 0 to 100 scale, 0 no effect, 100 complete control; for Kochia plant response rating: 0 to 100 scale (0 no effect, 100 complete control)
Method in brief: as §1

[7] = system: barnyardgrass (Echinochloa crus-galli); experiment: Test A postemergence, visual injury rating; details: 0 is no effect, 100 is complete control; for Barnyardgrass plant response rating: 0 to 100 scale, approximately 10 days
Description: (§2) Seeds of plant species selected from barnyardgrass (Echinochloa crus-galli), kochia (Kochia scoparia), ragweed (common ragweed, Ambrosia elatior), Italian ryegrass (Lolium multiflorum), large (Lg) crabgrass (Digitaria sanguinalis), giant foxtail (Setaria faberii), morningglory (Ipomoea spp.), pigweed (Amaranthus retroflexus), velvetleaf (Abutilon theophrasti), wheat (Triticum aestivum), and corn (Zea mays) were planted into a blend of loam soil and sand and treated preemergence with a directed soil spray using test chemicals formulated in a non-phytotoxic solvent mixture which included a surfactant.
(§3) At the same time, plants selected from these crop and weed species and also blackgrass (Alopecurus myosuroides), and galium (catchweed bedstraw, Galium aparine) were planted in pots containing the same blend of loam soil and sand and treated with postemergence applications of test chemicals formulated in the same manner. Plants ranged in height from 2 to 10 cm and were in the one- to two-leaf stage for the postemergence treatment. Treated plants and untreated controls were maintained in a greenhouse for approximately 10 days, after which time all treated plants were compared to untreated controls and visually evaluated for injury. Plant response ratings, summarized in Table A, are based on a 0 to 100 scale where 0 is no effect and 100 is complete control. A dash (-) response means no test result.

[8] = system: corn (Zea mays); experiment: Test A postemergence, visual injury rating; details: 0 is no effect, 100 is complete control; for Corn plant response rating: 0 to 100 scale, approximately 10 days
Description: as §2, §3

[9] = system: ragweed (common ragweed, Ambrosia elatior); experiment: Test A postemergence, visual injury rating; details: 0 is no effect, 100 is complete control; for Ragweed plant response rating: 0 to 100 scale, approximately 10 days
Description: as §2, §3

[10] = system: wheat (Triticum aestivum); experiment: Test A postemergence, visual injury rating; details: 0 is no effect, 100 is complete control; for Wheat plant response rating: 0 to 100 scale, approximately 10 days
Description: as §2, §3

[11] = system: giant foxtail (Setaria faberii); experiment: Test A postemergence, visual injury rating; details: 0 is no effect, 100 is complete control; for Foxtail, Giant plant response rating: 0 to 100 scale, approximately 10 days
Description: as §2, §3

[12] = system: blackgrass (Alopecurus myosuroides); experiment: Test A postemergence, visual injury rating; details: 0 is no effect, 100 is complete control; for Blackgrass plant response rating: 0 to 100 scale, approximately 10 days
Description: as §2, §3

[13] = system: pigweed (Amaranthus retroflexus); experiment: Test A postemergence, visual injury rating; details: 0 is no effect, 100 is complete control; for Pigweed plant response rating: 0 to 100 scale, approximately 10 days
Description: as §2, §3

[14] = system: galium (catchweed bedstraw, Galium aparine); experiment: Test A postemergence, visual injury rating; details: 0 is no effect, 100 is complete control; for Galium plant response rating: 0 to 100 scale, approximately 10 days
Description: as §2, §3

[15] = system: Italian ryegrass (Lolium multiflorum); experiment: Test A postemergence, visual injury rating; details: 0 is no effect, 100 is complete control; for Ryegrass, Italian plant response rating: 0 to 100 scale, approximately 10 days
Description: as §2, §3

[16] = system: kochia (Kochia scoparia); experiment: Test A postemergence, visual injury rating; details: 0 is no effect, 100 is complete control; for Kochia plant response rating: 0 to 100 scale, approximately 10 days
Description: as §2, §3

[17] = system: barnyardgrass (Echinochloa crus-galli); experiment: Test B flooded paddy test, plant response rating; details: 250 g ai/ha; Flood; scale of 0 to 100 where 0 is no effect and 100 is complete control; 13 to 15 days
Description: (§4) At time of treatment, test pots were flooded to 3 cm above the soil surface, treated by application of test compounds directly to the paddy water, and then maintained at that water depth for the duration of the test. Treated plants and controls were maintained in a greenhouse for 13 to 15 days, after which time all species were compared to controls and visually evaluated. […] A dash (-) response means no test result.

[18] = system: sedge, umbrella (small-flower umbrella sedge, Cyperus difformis); experiment: Test B flooded paddy test, plant response rating; details: 250 g ai/ha; Flood; scale of 0 to 100 where 0 is no effect and 100 is complete control; 13 to 15 days
Description: as §4

[19] = system: rice (Oryza sativa); experiment: Test B flooded paddy test, plant response rating; details: 250 g ai/ha; Flood; scale of 0 to 100 where 0 is no effect and 100 is complete control; 13 to 15 days
Description: as §4

[20] = system: ducksalad (Heteranthera limosa); experiment: Test B flooded paddy test, plant response rating; details: 250 g ai/ha; Flood; scale of 0 to 100 where 0 is no effect and 100 is complete control; 13 to 15 days
Description: as §4

## CC(C)(C)CCOC(=O)c1c(Br)cccc1Oc1ncc(Cl)cn1 [Compound 96]
[1]
  Plant response rating, Barnyardgrass: 0
[1]; 125 g ai/ha
  Barnyardgrass plant response rating: 0
[2]
  Plant response rating, Ragweed: 0
[2]; 125 g ai/ha
  Ragweed plant response rating: 0
[3]
  Plant response rating, Foxtail, Giant: 0
[3]; 125 g ai/ha
  Foxtail, Giant plant response rating: 0
[4]
  Plant response rating, Pigweed: 0
[4]; 125 g ai/ha
  Pigweed plant response rating: 0
[5]
  Plant response rating, Ryegrass, Italian: 0
[5]; 125 g ai/ha
  Ryegrass, Italian plant response rating: 0
[6]
  Plant response rating, Kochia: 0
[6]; 125 g ai/ha
  Kochia plant response rating: 0
[7]; 31 g ai/ha
  Barnyardgrass plant response rating: 0
[7]; 125 g ai/ha
  Barnyardgrass plant response rating: 10
[8]; 31 g ai/ha
  Corn plant response rating: 0
[8]; 125 g ai/ha
  Corn plant response rating: 20
[9]; 31 g ai/ha
  Ragweed plant response rating: 0
[9]; 125 g ai/ha
  Ragweed plant response rating: 0
[10]; 31 g ai/ha
  Wheat plant response rating: 0
[10]; 125 g ai/ha
  Wheat plant response rating: 0
[11]; 31 g ai/ha
  Foxtail, Giant plant response rating: 0
[11]; 125 g ai/ha
  Foxtail, Giant plant response rating: 10
[12]; 31 g ai/ha
  Blackgrass plant response rating: 0
[12]; 125 g ai/ha
  Blackgrass plant response rating: 10
[13]; 31 g ai/ha
  Pigweed plant response rating: 0
[13]; 125 g ai/ha
  Pigweed plant response rating: 10
[14]; 31 g ai/ha
  Galium plant response rating: 0
[14]; 125 g ai/ha
  Galium plant response rating: 20
[15]; 31 g ai/ha
  Ryegrass, Italian plant response rating: 0
[15]; 125 g ai/ha
  Ryegrass, Italian plant response rating: 0
[16]; 31 g ai/ha
  Kochia plant response rating: 0
[16]; 125 g ai/ha
  Kochia plant response rating: 0
[17]
  Plant response rating, Barnyardgrass: 0
[18]
  Plant response rating, Sedge, Umbrella: 0
[19]
  Plant response rating, Rice: 0
[20]
  Plant response rating, Ducksalad: 0

## O=C(OCC1CCCC1)c1c(Br)cccc1Oc1ncc(Cl)cn1 [Compound 6]
[1]; 125 g ai/ha
  Barnyardgrass plant response rating: 10
[1]; 500 g ai/ha
  Barnyardgrass plant response rating: 60
[2]; 125 g ai/ha
  Ragweed plant response rating: 0
[2]; 500 g ai/ha
  Ragweed plant response rating: 0
[3]; 125 g ai/ha
  Foxtail, Giant plant response rating: 60
[3]; 500 g ai/ha
  Foxtail, Giant plant response rating: 100
[4]; 125 g ai/ha
  Pigweed plant response rating: 10
[4]; 500 g ai/ha
  Pigweed plant response rating: 70
[5]; 125 g ai/ha
  Ryegrass, Italian plant response rating: 0
[5]; 500 g ai/ha
  Ryegrass, Italian plant response rating: 70
[6]; 125 g ai/ha
  Kochia plant response rating: 0
[6]; 500 g ai/ha
  Kochia plant response rating: 0
[7]; 125 g ai/ha
  Barnyardgrass plant response rating (0 to 100 scale): 10
[7]; 500 g ai/ha
  Barnyardgrass plant response rating (0 to 100 scale): 40
[8]; 125 g ai/ha
  Corn plant response rating (0 to 100 scale): 0
[8]; 500 g ai/ha
  Corn plant response rating (0 to 100 scale): 10
[9]; 125 g ai/ha
  Ragweed plant response rating (0 to 100 scale): 10
[9]; 500 g ai/ha
  Ragweed plant response rating (0 to 100 scale): 30
[10]; 125 g ai/ha
  Wheat plant response rating (0 to 100 scale): 0
[10]; 500 g ai/ha
  Wheat plant response rating (0 to 100 scale): 10
[11]; 125 g ai/ha
  Foxtail, Giant plant response rating (0 to 100 scale): 10
[11]; 500 g ai/ha
  Foxtail, Giant plant response rating (0 to 100 scale): 50
[12]; 125 g ai/ha
  Blackgrass plant response rating (0 to 100 scale): 10
[12]; 500 g ai/ha
  Blackgrass plant response rating (0 to 100 scale): 30
[13]; 125 g ai/ha
  Pigweed plant response rating (0 to 100 scale): 60
[13]; 500 g ai/ha
  Pigweed plant response rating (0 to 100 scale): 90
[14]; 125 g ai/ha
  Galium plant response rating (0 to 100 scale): 60
[14]; 500 g ai/ha
  Galium plant response rating (0 to 100 scale): 90
[15]; 125 g ai/ha
  Ryegrass, Italian plant response rating (0 to 100 scale): 0
[15]; 500 g ai/ha
  Ryegrass, Italian plant response rating (0 to 100 scale): 40
[16]; 125 g ai/ha
  Kochia plant response rating (0 to 100 scale): 40
[16]; 500 g ai/ha
  Kochia plant response rating (0 to 100 scale): 90
[17]
  Plant response rating, Barnyardgrass: 0
[18]
  Plant response rating, Sedge, Umbrella: 0
[19]
  Plant response rating, Rice: 0
[20]
  Plant response rating, Ducksalad: 0

## CCCSC(=O)c1c(Br)cccc1Oc1ncc(Cl)cn1 [Compound 70]
[1]
  Plant response rating, Barnyardgrass: 0
[1]; 125 g ai/ha
  Barnyardgrass plant response rating: 20
[2]
  Plant response rating, Ragweed: 0
[2]; 125 g ai/ha
  Ragweed plant response rating: 0
[3]
  Plant response rating, Foxtail, Giant: 0
[3]; 125 g ai/ha
  Foxtail, Giant plant response rating: 60
[4]
  Plant response rating, Pigweed: 0
[4]; 125 g ai/ha
  Pigweed plant response rating: 0
[5]
  Plant response rating, Ryegrass, Italian: 0
[5]; 125 g ai/ha
  Ryegrass, Italian plant response rating: 0
[6]
  Plant response rating, Kochia: 0
[6]; 125 g ai/ha
  Kochia plant response rating: 0
[7]; 31 g ai/ha
  Barnyardgrass plant response rating: 0
[7]; 125 g ai/ha
  Barnyardgrass plant response rating (0 to 100 scale): 30
[8]; 31 g ai/ha
  Corn plant response rating: 10
[8]; 125 g ai/ha
  Corn plant response rating (0 to 100 scale): 10
[9]; 31 g ai/ha
  Ragweed plant response rating: 0
[9]; 125 g ai/ha
  Ragweed plant response rating: 20
[10]; 31 g ai/ha
  Wheat plant response rating: 0
[10]; 125 g ai/ha
  Wheat plant response rating: 0
[11]; 31 g ai/ha
  Foxtail, Giant plant response rating: 0
[11]; 125 g ai/ha
  Foxtail, Giant plant response rating (0 to 100 scale): 30
[12]; 31 g ai/ha
  Blackgrass plant response rating: 0
[12]; 125 g ai/ha
  Blackgrass plant response rating (0 to 100 scale): 20
[13]; 31 g ai/ha
  Pigweed plant response rating: 10
[13]; 125 g ai/ha
  Pigweed plant response rating: 20
[14]; 31 g ai/ha
  Galium plant response rating: 30
[14]; 125 g ai/ha
  Galium plant response rating (0 to 100 scale): 70
[15]; 31 g ai/ha
  Ryegrass, Italian plant response rating: 0
[15]; 125 g ai/ha
  Ryegrass, Italian plant response rating: 20
[16]; 31 g ai/ha
  Kochia plant response rating: 20
[16]; 125 g ai/ha
  Kochia plant response rating: 70
[17]
  Plant response rating, Barnyardgrass: 0
[18]
  Plant response rating, Sedge, Umbrella: 80
[19]
  Plant response rating, Rice: 0
[20]
  Plant response rating, Ducksalad: 70
